# In patent US20160311788A1, “Antifouling Compounds And Use Thereof” (National University of Singapore, priority 2008, published 2016):
# Structures can show the parent of a compound that is named as a salt.
# What was measured:
# [1] = cited from earlier work
# [2] = tested on: marine bacteria strain S30; experiment: disc inhibition assay, strain S30; assay type: cell-based, Bacillus borophilicus; conditions: Bacillus, S30, 24 h
# Outline: (§1)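 Zone-of-inhibition diameters (caliper, n=2 averaged) were recorded after overnight dark incubation at 35° C. Test discs of 6 mm bore 50 μg compound delivered in DMSO, placed on lawns of the marine strain grown in marine broth and spread on Marine Agar; solvent discs served as controls.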
# [3] = tested on: marine bacteria strain S28; experiment: disc inhibition assay, strain S28; assay type: cell-based, Arthrobacter protophormial
# Outline: as §1
# [4] = tested on: Escherichia coli (Strain K12; ATCC 15222); experiment: disc inhibition assay, REF 1; assay type: cell-based
# Method: (§2) 13 strains of marine bacteria were isolated from fouling communities located in the coastal waters around Singapore. These were characterized in earlier studies and reported in Teo et al. (U.S. patent application Ser. No. 11/265,833) and Choong et al (in prep). In addition, four reference bacterial strains were added tested: Escherichia coli (Strain K12, ATCC 15222), E. coli (strain DH5a), Pseudomonas aeruginosa (strain LMG 12228; ATCC 15692) and P. putida (strain KT2440; ATCC 47054). All the bacteria were also tested against five antibiotics: ampicillin (AMP), tetracycline (TETR), erythromycin (ERY), chloramphenicol (CHL) and streptomycin (STREP).
# (§3) Disks comprising the compounds to be tested were prepared as follows. The antibacterial assay, the pure compounds were made up to a concentration of 2 mgml^−1 in DMSO. 25 μl of the stock was pipetted onto each 6 mm sterile disc (Macherey-Nagel #484000) to obtain 50 μg of compound per disc. Equivalent volume of DMSO was used inoculated for the control.
# (§4) For all disk inhibition assays, bacterial cultures were grown in marine broth (Pronadisa #1217.00). Sterile swabs dipped into the cultures were used to inoculate Marine Agar plates with a bacterial lawn by smearing the culture over the surface. After inoculating the plates, discs with antibiotics, pharmaceuticals or control blanks were placed on each plate. Each concentration of antibiotic or pharmaceutical was tested with two replicates. After the disks were placed on the agar surface, plates were incubated overnight in the dark at 35° C. After incubation, plates were examined for zones of inhibition or clearing around control and treated disks. The diameter of any zone of clearing or inhibition was measured using Vernier calipers. There were two replicates per treatment, and the average was taken. There was no zone of inhibition around the control blanks in all the assays.
# [5] = tested on: marine bacteria strain S14; experiment: disc inhibition assay, strain S14; assay type: cell-based, Vibrio probioticus
# [6] = tested on: Escherichia coli (Strain DH5a); experiment: disc inhibition assay, REF 2; assay type: cell-based
# Method: as §2, §3, §4
# [7] = tested on: marine bacteria strain S1; experiment: disc inhibition assay, strain S1; assay type: cell-based, Rhodovulum iodosum
# Outline: as §1
# [8] = tested on: marine bacteria strain S4; experiment: disc inhibition assay, strain S4; assay type: cell-based, Bacillus algicola; conditions: Guptibacillus algicola, S4, 24 h
# Outline: as §1
# [9] = tested on: Pseudomonas aeruginosa (strain LMG 12228; ATCC 15692); experiment: disc inhibition assay, REF 3; assay type: cell-based
# Method: as §2, §3, §4
# [10] = tested on: marine bacteria strain S27; experiment: disc inhibition assay, strain S27; assay type: cell-based, Tenacibaculum lutimaris
# Outline: as §1
# [11] = tested on: Pseudomonas putida (Strain KT2440; BCRC 10459); experiment: disc inhibition assay, REF 4; assay type: cell-based
# Method: as §2, §3, §4
# [12] = tested on: marine bacteria strain S17; experiment: disc inhibition assay, strain S17; assay type: cell-based, Gordonia terrae
# Outline: as §1
# [13] = tested on: marine bacteria strain S3; experiment: disc inhibition assay, strain S3; assay type: cell-based, Erythrobacter aquimaris
# Outline: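 Disc inhibition assay against a marine bacterial strain isolated from fouling communities in Singapore coastal waters. The strain was grown in marine broth and swabbed over Marine Agar plates as a lawn. 6 mm sterile discs loaded with compound in DMSO, or DMSO controls, were placed on the plates and incubated overnight in the dark at 35° C.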
# [14] = tested on: marine bacteria strain S10; experiment: disc inhibition assay, strain S10; assay type: cell-based, Halobacillus trueperi; conditions: Halobacillus trueperi, S10, 24 h
# Outline: as §1
# [15] = tested on: marine bacteria strain S9; experiment: disc inhibition assay, strain S9; assay type: cell-based, Bacillus algicola; conditions: Guptibacillus algicola, S9, 24 h
# Outline: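 50 μg compound/6 mm disc (from 2 mg/ml DMSO stock); DMSO blank disc control. Lawn swabbed on Marine Agar from marine broth culture. Overnight, 35° C, dark. Readout: inhibition zone diameter (calipers), mean of 2 replicates.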
# [16] = tested on: marine bacteria strain S18; experiment: disc inhibition assay, strain S18; assay type: cell-based, Microbacterium esteraromaticum
# [17] = tested on: marine bacteria strain S16; experiment: disc inhibition assay, strain S16; assay type: cell-based, Pseudoalteromonas piscicida
# Outline: as §1
# [18] = tested on: marine bacteria strain S29; experiment: disc inhibition assay, strain S29; assay type: cell-based, Bacillus hwajinpoensis; conditions: Guptibacillus hwajinpoensis, S29, 24 h
# Outline: as §1
smiles,measurement,setting,value
CN(C)C(=O)C(CCN1CCC(O)(c2ccc(Cl)cc2)CC1)(c1ccccc1)c1ccccc1 [Loperamide hydrochloride],solubility in water,[1],slightly soluble
"CN(C)[C@@H]1C(O)=C(C(N)=O)C(=O)[C@@]2(O)C(O)=C3C(=O)c4c(O)cccc4[C@@](C)(O)[C@H]3C[C@@H]12 [TETR, Tetracycline, reference compound]",zone of inhibition at 5 µg/disc,"[2]; strain 30, 5 ug",2 to 5 mm
same,zone of inhibition at 30 µg/disc,"[2]; strain 30, 30 ug",2 to 5 mm
same,zone of inhibition at 30 µg/disc,"[3]; Arthrobacter, S28, 24 h, strain 28, 30 ug",2 to 5 mm
same,zone of inhibition,"[3]; strain 28, 5 ug",−
same,zone of inhibition,"[4]; REF 1, 5 ug",+ (2-5 mm zone of inhibition around each disk was observed.)
same,zone of inhibition,"[4]; REF 1, 30 ug",++ (5-10 mm zone was observed.)
same,zone of inhibition at 30 µg/disc,"[5]; Vibrio, S14, 24 h",2 to 5 mm
same,zone of inhibition,"[5]; strain 14, 5 ug",−
same,zone of inhibition,"[6]; REF 2, 5 ug",+ (2-5 mm zone of inhibition around each disk was observed.)
same,zone of inhibition,"[6]; REF 2, 30 ug",++ (5-10 mm zone was observed.)
same,zone of inhibition,"[7]; strain 1, 5 ug",−
same,zone of inhibition,"[7]; strain 1, 30 ug",−
same,zone of inhibition at 5 µg/disc,"[8]; strain 4, 5 ug",2 to 5 mm
same,zone of inhibition at 30 µg/disc,"[8]; strain 4, 30 ug",5 to 10 mm
same,zone of inhibition,"[9]; REF 3, 5 ug",+ (2-5 mm zone of inhibition around each disk was observed.)
same,zone of inhibition,"[9]; REF 3, 30 ug",++ (5-10 mm zone was observed.)
same,zone of inhibition at 30 µg/disc,"[10]; Tenacibaculum lutimaris, S27, 24 h, strain 27, 30 ug",2 to 5 mm
same,zone of inhibition,"[10]; strain 27, 5 ug",−
same,zone of inhibition,"[11]; REF 4, 5 ug",++ (5-10 mm zone was observed.)
same,zone of inhibition,"[11]; REF 4, 30 ug",++ (5-10 mm zone was observed.)
same,zone of inhibition,"[12]; strain 17, 5 ug",−
same,zone of inhibition,"[12]; strain 17, 30 ug",−
same,zone of inhibition,"[13]; strain 3, 5 ug",−
same,zone of inhibition,"[13]; strain 3, 30 ug",−
same,zone of inhibition at 5 µg/disc,"[14]; strain 10, 5 ug",2 to 5 mm
same,zone of inhibition at 30 µg/disc,"[14]; strain 10, 30 ug",2 to 5 mm
same,zone of inhibition at 5 µg/disc,"[15]; strain 9, 5 ug",2 to 5 mm
same,zone of inhibition at 30 µg/disc,"[15]; strain 9, 30 ug",5 to 10 mm
same,zone of inhibition at 30 µg/disc,"[16]; Microbacterium esteraromaticum, S18, 24 h, strain 18, 30 ug",2 to 5 mm
same,zone of inhibition,"[16]; strain 18, 5 ug",−
same,zone of inhibition,"[17]; strain 16, 5 ug",−
same,zone of inhibition,"[17]; strain 16, 30 ug",−
same,zone of inhibition at 5 µg/disc,"[18]; strain 29, 5 ug",2 to 5 mm
same,zone of inhibition at 30 µg/disc,"[18]; strain 29, 30 ug",5 to 10 mm
